According to the kinase profiling compilation of Christmann-Franck et al. (2016):
Values joined by “and” are separate entries in the source; they are usually repeats but may differ in a detail not shown here. Equal entries are not always repeated.

Columns and labels:
PIM1 (human) = PIM1 (human) (UniProt P11309)
MAPK8 (human) = MAPK8 (human) (UniProt P45983)
EPHA2 (human) = EPHA2 (human) (UniProt P29317)
MKNK2 (human) = MKNK2 (human) (UniProt Q9HBH9)
AURKB (human) = AURKB (human) (UniProt Q96GD4)
Chain of AURKB (human) (Q96GD4 whole entry, looked up): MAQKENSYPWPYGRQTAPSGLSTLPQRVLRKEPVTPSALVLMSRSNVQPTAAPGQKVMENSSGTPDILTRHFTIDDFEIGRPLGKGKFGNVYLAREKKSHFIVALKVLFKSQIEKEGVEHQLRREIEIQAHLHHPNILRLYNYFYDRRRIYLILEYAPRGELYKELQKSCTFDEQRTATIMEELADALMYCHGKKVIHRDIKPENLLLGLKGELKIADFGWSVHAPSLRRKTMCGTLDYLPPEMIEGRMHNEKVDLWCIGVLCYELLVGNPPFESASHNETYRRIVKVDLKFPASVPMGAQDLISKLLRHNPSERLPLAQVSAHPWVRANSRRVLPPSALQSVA

MAPKAPK2 (human) = MAPKAPK2 (human) (UniProt P49137)
Chain of MAPKAPK2 (human) (P49137 whole entry, looked up): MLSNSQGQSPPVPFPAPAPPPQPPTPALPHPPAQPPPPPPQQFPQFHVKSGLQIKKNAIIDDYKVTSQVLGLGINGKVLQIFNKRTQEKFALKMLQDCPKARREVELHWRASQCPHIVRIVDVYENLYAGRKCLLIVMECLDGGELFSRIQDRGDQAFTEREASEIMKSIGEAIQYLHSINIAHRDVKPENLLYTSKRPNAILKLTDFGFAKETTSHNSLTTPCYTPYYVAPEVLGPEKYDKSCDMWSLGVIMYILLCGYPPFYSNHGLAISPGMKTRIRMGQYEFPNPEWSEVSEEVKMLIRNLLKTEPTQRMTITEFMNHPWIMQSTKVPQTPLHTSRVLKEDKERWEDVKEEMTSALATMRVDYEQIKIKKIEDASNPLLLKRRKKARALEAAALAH

EPHB3 (human) = EPHB3 (human) (UniProt P54753)
Chain of EPHB3 (human) (P54753 whole entry, looked up): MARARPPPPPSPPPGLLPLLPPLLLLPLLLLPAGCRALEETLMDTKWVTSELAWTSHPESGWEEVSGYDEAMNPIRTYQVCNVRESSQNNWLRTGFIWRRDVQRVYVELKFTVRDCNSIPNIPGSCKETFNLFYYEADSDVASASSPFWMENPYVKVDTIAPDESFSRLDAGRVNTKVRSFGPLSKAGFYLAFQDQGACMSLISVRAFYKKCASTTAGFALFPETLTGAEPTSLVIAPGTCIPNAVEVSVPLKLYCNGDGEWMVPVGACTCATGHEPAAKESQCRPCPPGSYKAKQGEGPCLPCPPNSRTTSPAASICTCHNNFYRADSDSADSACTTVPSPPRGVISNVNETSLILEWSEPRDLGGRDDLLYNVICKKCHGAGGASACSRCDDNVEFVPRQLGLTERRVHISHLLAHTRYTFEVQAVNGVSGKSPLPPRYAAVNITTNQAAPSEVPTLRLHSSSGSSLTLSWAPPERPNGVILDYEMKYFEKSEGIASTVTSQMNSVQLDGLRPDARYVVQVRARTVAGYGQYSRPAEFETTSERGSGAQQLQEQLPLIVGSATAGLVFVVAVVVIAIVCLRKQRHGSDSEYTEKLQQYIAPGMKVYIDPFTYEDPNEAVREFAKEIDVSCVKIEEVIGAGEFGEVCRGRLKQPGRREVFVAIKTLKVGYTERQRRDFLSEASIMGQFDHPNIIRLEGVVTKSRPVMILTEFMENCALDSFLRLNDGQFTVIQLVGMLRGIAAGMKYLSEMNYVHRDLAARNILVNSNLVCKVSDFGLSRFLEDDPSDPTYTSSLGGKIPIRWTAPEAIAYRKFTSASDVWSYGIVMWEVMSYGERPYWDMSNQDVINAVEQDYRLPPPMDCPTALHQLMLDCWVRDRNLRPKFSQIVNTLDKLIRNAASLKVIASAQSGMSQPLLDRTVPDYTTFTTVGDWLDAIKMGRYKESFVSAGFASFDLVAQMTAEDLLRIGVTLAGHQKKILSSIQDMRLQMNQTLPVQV

[1] = system: SGK1 (human), O00141 [S422D]
MAP2K1 (human) = MAP2K1 (human) (UniProt Q02750)
MAPKAPK5 (human) = MAPKAPK5 (human) (UniProt Q8IW41)
GSK3B (human) = GSK3B (human) (UniProt P49841)
Chain of GSK3B (human) (P49841 whole entry, looked up): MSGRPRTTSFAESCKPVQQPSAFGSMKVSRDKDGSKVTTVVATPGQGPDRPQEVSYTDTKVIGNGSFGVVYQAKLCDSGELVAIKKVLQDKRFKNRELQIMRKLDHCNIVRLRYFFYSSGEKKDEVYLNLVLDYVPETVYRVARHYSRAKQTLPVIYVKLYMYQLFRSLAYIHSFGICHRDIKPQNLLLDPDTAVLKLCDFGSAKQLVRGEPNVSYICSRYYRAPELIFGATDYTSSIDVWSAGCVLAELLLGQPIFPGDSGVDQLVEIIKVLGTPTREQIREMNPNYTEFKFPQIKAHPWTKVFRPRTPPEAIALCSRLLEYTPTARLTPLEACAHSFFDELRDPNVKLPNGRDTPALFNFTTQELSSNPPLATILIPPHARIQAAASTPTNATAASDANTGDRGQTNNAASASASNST

PDPK1 (human) = PDPK1 (human) (UniProt O15530)
Chain of PDPK1 (human) (O15530 whole entry, looked up): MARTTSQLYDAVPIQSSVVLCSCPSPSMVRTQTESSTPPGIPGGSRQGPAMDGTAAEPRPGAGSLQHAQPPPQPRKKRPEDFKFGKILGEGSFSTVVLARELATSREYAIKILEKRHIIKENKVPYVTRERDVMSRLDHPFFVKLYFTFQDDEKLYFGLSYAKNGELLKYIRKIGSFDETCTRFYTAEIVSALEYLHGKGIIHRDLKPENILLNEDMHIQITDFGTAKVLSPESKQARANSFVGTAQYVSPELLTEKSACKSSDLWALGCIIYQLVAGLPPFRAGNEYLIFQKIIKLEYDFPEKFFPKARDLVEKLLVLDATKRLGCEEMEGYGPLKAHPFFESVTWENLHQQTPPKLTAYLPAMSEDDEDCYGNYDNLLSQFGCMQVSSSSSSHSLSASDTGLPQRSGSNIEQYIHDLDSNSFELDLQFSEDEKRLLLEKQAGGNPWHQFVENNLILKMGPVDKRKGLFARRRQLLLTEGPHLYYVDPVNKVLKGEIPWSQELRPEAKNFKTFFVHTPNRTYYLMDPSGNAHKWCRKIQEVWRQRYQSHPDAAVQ

MAPK12 (human) = MAPK12 (human) (UniProt P53778)
Chain of MAPK12 (human) (P53778 whole entry, looked up): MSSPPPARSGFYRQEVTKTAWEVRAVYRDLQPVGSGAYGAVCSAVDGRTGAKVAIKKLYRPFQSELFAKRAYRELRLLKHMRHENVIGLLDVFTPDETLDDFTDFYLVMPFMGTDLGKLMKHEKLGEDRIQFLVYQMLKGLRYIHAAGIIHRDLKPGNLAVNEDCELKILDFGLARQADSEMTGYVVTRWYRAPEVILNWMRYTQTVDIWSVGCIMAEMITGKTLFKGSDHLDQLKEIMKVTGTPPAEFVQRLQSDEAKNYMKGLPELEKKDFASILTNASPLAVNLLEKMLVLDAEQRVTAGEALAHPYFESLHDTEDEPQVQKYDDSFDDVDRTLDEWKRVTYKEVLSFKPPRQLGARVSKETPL

CAMKK2 (human) = CAMKK2 (human) (UniProt Q96RR4)
PRKAA1 or PRKAA2 (rat) = details: accession and sequence are those of the human protein
MST4 (human) = MST4 (human) (UniProt Q9P289)
NEK6 (human) = NEK6 (human) (UniProt Q9HC98)
Chain of NEK6 (human) (Q9HC98 whole entry, looked up): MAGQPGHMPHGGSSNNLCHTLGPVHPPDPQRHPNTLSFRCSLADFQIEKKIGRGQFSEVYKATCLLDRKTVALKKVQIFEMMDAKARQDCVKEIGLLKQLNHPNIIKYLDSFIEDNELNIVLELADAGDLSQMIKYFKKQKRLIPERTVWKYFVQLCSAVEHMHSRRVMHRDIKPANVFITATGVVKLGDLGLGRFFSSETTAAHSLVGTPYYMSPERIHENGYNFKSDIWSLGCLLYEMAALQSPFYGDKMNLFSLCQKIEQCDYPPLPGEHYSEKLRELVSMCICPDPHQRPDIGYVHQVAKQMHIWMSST

PRKCZ (human) = PRKCZ (human) (UniProt Q05513)
IGF1R (human) = IGF1R (human) (UniProt P08069)
PKN2 (human) = PKN2 (human) (UniProt Q16513)
PLK1 (human) = PLK1 (human) (UniProt P53350)
DYRK1A (human) = DYRK1A (human) (UniProt Q13627)
RPS6KA5 KD1 KD2 (human) = RPS6KA5 KD1 KD2 (human) (UniProt O75582)
Chain of RPS6KA5 KD1 KD2 (human) (O75582 whole entry, looked up): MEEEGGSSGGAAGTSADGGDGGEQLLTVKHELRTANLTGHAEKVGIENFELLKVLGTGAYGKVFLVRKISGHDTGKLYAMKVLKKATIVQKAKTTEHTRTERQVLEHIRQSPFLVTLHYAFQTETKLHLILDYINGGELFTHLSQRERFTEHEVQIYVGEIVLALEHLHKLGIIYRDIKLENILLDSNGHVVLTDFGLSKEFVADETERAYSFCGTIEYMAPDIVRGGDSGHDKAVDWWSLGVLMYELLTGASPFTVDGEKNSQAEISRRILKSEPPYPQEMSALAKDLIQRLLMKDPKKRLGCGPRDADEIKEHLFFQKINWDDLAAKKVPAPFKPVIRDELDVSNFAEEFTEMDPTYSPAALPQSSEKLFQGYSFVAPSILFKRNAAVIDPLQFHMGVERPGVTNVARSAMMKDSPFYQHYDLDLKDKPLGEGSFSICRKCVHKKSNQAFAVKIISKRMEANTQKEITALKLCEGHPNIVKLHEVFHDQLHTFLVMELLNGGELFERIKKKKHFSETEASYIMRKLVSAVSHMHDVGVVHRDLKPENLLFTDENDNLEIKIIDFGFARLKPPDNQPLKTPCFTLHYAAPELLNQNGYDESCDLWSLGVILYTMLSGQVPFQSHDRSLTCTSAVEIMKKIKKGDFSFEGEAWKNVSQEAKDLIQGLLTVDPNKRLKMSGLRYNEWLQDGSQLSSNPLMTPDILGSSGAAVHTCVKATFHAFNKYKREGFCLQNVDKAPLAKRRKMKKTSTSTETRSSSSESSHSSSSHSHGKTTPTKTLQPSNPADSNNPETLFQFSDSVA

BTK (human) = BTK (human) (UniProt Q06187)
PRKCA (human) = PRKCA (human) (UniProt P17252)
CSK (human) = CSK (human) (UniProt P41240)
Chain of CSK (human) (P41240 whole entry, looked up): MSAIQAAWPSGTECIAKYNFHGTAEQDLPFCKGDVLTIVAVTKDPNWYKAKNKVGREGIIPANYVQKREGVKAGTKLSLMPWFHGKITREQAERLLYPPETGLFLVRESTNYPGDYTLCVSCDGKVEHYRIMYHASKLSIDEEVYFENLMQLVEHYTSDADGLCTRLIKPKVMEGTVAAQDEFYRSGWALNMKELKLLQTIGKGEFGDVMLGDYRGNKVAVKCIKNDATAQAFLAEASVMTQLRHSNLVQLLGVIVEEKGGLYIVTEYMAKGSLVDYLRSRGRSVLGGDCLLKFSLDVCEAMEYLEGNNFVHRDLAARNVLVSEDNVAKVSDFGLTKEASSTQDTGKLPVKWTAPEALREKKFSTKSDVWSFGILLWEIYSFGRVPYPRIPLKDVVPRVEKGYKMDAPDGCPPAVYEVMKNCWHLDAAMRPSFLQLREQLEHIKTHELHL

TBK1 (human) = TBK1 (human) (UniProt Q9UHD2)
MAPK9 (human) = MAPK9 (human) (UniProt P45984)
PIK3C2A (human) = PIK3C2A (human) (UniProt O00443)
PI4KA (human) = PI4KA (human) (UniProt P42356)
PI4KB (human) = PI4KB (human) (UniProt Q9UBF8)
PIK3C2B (human) = PIK3C2B (human) (UniProt O00750)
PIK3C3 (human) = PIK3C3 (human) (UniProt Q8NEB9)
STK3 (human) = STK3 (human) (UniProt Q13188)

Chain of PIM1 (human) (P11309 whole entry, looked up): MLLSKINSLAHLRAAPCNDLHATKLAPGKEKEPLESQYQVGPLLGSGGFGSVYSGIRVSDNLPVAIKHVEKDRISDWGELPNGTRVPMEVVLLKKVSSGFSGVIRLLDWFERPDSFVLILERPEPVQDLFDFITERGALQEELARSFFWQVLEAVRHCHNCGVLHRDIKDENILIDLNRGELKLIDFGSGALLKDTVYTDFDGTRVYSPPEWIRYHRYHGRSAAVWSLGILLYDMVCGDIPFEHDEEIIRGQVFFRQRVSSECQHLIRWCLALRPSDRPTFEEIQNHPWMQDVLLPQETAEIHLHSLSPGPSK

`CC(C)n1nc(-c2cc3cc(O)ccc3[nH]2)c2c(N)ncnc21` gave a per cent of control (PIM1 (human); compound 1.0 µM) of 74%, a per cent of control (PIM1 (human); compound 10.0 µM) of 21% and a per cent of control (MAPK8 (human); compound 1.0 µM) of 94%. For the same compound, the per cent of control (MAPK8 (human); compound 10.0 µM) was 103%, the per cent of control (EPHA2 (human); compound 1.0 µM) was 12% and the per cent of control (EPHA2 (human); compound 10.0 µM) was 3%. For the same compound, the per cent of control (MKNK2 (human); compound 1.0 µM) was 86%, the per cent of control (MKNK2 (human); compound 10.0 µM) was 42% and the per cent of control (AURKB (human); compound 1.0 µM) was 78%. The per cent of control (AURKB (human); compound 10.0 µM) was 27%, the per cent of control (MAPKAPK2 (human); compound 1.0 µM) was 96% and the per cent of control (MAPKAPK2 (human); compound 10.0 µM) was 94%. The per cent of control (EPHB3 (human); compound 1.0 µM) was 18%, the per cent of control (EPHB3 (human); compound 10.0 µM) was 5% and the per cent of control ([1]; compound 1.0 µM) was 85%. It also gave a per cent of control ([1]; compound 10.0 µM) of 69%, a per cent of control (MAP2K1 (human); compound 1.0 µM) of 25% and a per cent of control (MAP2K1 (human); compound 10.0 µM) of 10%. For the same compound, the per cent of control (MAPKAPK5 (human); compound 1.0 µM) was 97%, the per cent of control (MAPKAPK5 (human); compound 10.0 µM) was 92% and the per cent of control (GSK3B (human); compound 1.0 µM) was 103%. The per cent of control (GSK3B (human); compound 10.0 µM) was 60%, the per cent of control (PDPK1 (human); compound 1.0 µM) was 83% and 93% and the per cent of control (PDPK1 (human); compound 10.0 µM) was 60% and 71%. The per cent of control (MAPK12 (human); compound 1.0 µM) was 96%, the per cent of control (MAPK12 (human); compound 10.0 µM) was 72% and the per cent of control (CAMKK2 (human); compound 1.0 µM) was 72%. For the same compound, the per cent of control (CAMKK2 (human); compound 10.0 µM) was 30%, the per cent of control (PRKAA1 or PRKAA2 (rat); compound 1.0 µM) was 70% and the per cent of control (PRKAA1 or PRKAA2 (rat); compound 10.0 µM) was 28%. It also gave a per cent of control (MST4 (human); compound 1.0 µM) of 42%, a per cent of control (MST4 (human); compound 10.0 µM) of 13% and a per cent of control (NEK6 (human); compound 1.0 µM) of 99%. The per cent of control (NEK6 (human); compound 10.0 µM) was 96%, the per cent of control (PRKCZ (human); compound 1.0 µM) was 91% and the per cent of control (PRKCZ (human); compound 10.0 µM) was 51%. It also gave a per cent of control (IGF1R (human); compound 1.0 µM) of 103%, a per cent of control (IGF1R (human); compound 10.0 µM) of 89% and a per cent of control (PKN2 (human); compound 1.0 µM) of 68%. The per cent of control (PKN2 (human); compound 10.0 µM) was 22%, the per cent of control (PLK1 (human); compound 1.0 µM) was 89% and the per cent of control (PLK1 (human); compound 10.0 µM) was 47%. For the same compound, the per cent of control (DYRK1A (human); compound 1.0 µM) was 84%, the per cent of control (DYRK1A (human); compound 10.0 µM) was 55% and the per cent of control (RPS6KA5 KD1 KD2 (human); compound 1.0 µM) was 105%. The per cent of control (RPS6KA5 KD1 KD2 (human); compound 10.0 µM) was 49%, the per cent of control (BTK (human); compound 1.0 µM) was 20% and the per cent of control (BTK (human); compound 10.0 µM) was 5%. It also gave a per cent of control (PRKCA (human); compound 1.0 µM) of 13%, a per cent of control (PRKCA (human); compound 10.0 µM) of 9% and a per cent of control (CSK (human); compound 1.0 µM) of 52%. The per cent of control (CSK (human); compound 10.0 µM) was 34%, the per cent of control (TBK1 (human); compound 1.0 µM) was 97% and the per cent of control (TBK1 (human); compound 10.0 µM) was 95%. The per cent of control (MAPK9 (human); compound 1.0 µM) was 103%, the IC50 (PIK3C2A (human)) was 0.866 µM and the IC50 (PI4KA (human)) was over 10 µM. The IC50 (PI4KB (human)) was 2.13 µM, the IC50 (PIK3C2B (human)) was 0.0829 µM and the IC50 (PIK3C3 (human)) was over 10 µM.

Work on `COc1ccc(-c2ccc3c(N4CCOCC4)nc(N4C[C@@H](C)O[C@@H](C)C4)nc3n2)cc1CO` yielded a per cent of control (PIM1 (human); compound 1.0 µM) of 89%, a per cent of control (PIM1 (human); compound 10.0 µM) of 98% and a per cent of control (MAPK8 (human); compound 1.0 µM) of 80%. For the same compound, the per cent of control (MAPK8 (human); compound 10.0 µM) was 93%, the per cent of control (EPHA2 (human); compound 1.0 µM) was 108% and the per cent of control (EPHA2 (human); compound 10.0 µM) was 96%. The per cent of control (MKNK2 (human); compound 1.0 µM) was 87%, the per cent of control (MKNK2 (human); compound 10.0 µM) was 92% and the per cent of control (AURKB (human); compound 10.0 µM) was 86%. It also gave a per cent of control (MAPKAPK2 (human); compound 1.0 µM) of 98%, a per cent of control (MAPKAPK2 (human); compound 10.0 µM) of 81% and a per cent of control (EPHB3 (human); compound 1.0 µM) of 100%. The per cent of control (EPHB3 (human); compound 10.0 µM) was 78%, the per cent of control ([1]; compound 1.0 µM) was 76% and the per cent of control ([1]; compound 10.0 µM) was 64%. It also gave a per cent of control (MAP2K1 (human); compound 1.0 µM) of 96%, a per cent of control (MAP2K1 (human); compound 10.0 µM) of 43% and a per cent of control (MAPKAPK5 (human); compound 1.0 µM) of 67%. For the same compound, the per cent of control (MAPKAPK5 (human); compound 10.0 µM) was 87%, the per cent of control (GSK3B (human); compound 1.0 µM) was 95% and the per cent of control (GSK3B (human); compound 10.0 µM) was 91%. For the same compound, the per cent of control (PDPK1 (human); compound 1.0 µM) was 80% and 89%, the per cent of control (PDPK1 (human); compound 10.0 µM) was 91% and 101% and the per cent of control (MAPK12 (human); compound 1.0 µM) was 89%. For the same compound, the per cent of control (MAPK12 (human); compound 10.0 µM) was 91%, the per cent of control (CAMKK2 (human); compound 1.0 µM) was 108% and the per cent of control (CAMKK2 (human); compound 10.0 µM) was 94%. The per cent of control (PRKAA1 or PRKAA2 (rat); compound 1.0 µM) was 97%, the per cent of control (PRKAA1 or PRKAA2 (rat); compound 10.0 µM) was 106% and the per cent of control (MST4 (human); compound 1.0 µM) was 87%. It also gave a per cent of control (MST4 (human); compound 10.0 µM) of 86%, a per cent of control (NEK6 (human); compound 1.0 µM) of 74% and a per cent of control (NEK6 (human); compound 10.0 µM) of 83%. For the same compound, the per cent of control (STK3 (human); compound 1.0 µM) was 81%, the per cent of control (STK3 (human); compound 10.0 µM) was 102% and the per cent of control (PRKCZ (human); compound 1.0 µM) was 87%. For the same compound, the per cent of control (PRKCZ (human); compound 10.0 µM) was 84%, the per cent of control (IGF1R (human); compound 1.0 µM) was 117% and the per cent of control (IGF1R (human); compound 10.0 µM) was 89%. For the same compound, the per cent of control (PKN2 (human); compound 1.0 µM) was 95%, the per cent of control (PKN2 (human); compound 10.0 µM) was 105% and the per cent of control (PLK1 (human); compound 1.0 µM) was 76%. It also gave a per cent of control (PLK1 (human); compound 10.0 µM) of 94%, a per cent of control (DYRK1A (human); compound 1.0 µM) of 94% and a per cent of control (DYRK1A (human); compound 10.0 µM) of 80%. For the same compound, the per cent of control (RPS6KA5 KD1 KD2 (human); compound 1.0 µM) was 101%, the per cent of control (RPS6KA5 KD1 KD2 (human); compound 10.0 µM) was 117% and the per cent of control (BTK (human); compound 1.0 µM) was 85%. It also gave a per cent of control (BTK (human); compound 10.0 µM) of 81%, a per cent of control (PRKCA (human); compound 1.0 µM) of 106% and a per cent of control (PRKCA (human); compound 10.0 µM) of 86%. For the same compound, the per cent of control (CSK (human); compound 1.0 µM) was 90%, the per cent of control (CSK (human); compound 10.0 µM) was 99% and the per cent of control (TBK1 (human); compound 1.0 µM) was 97%. For the same compound, the per cent of control (TBK1 (human); compound 10.0 µM) was 89%, the per cent of control (MAPK9 (human); compound 1.0 µM) was 101% and the per cent of control (MAPK9 (human); compound 10.0 µM) was 103%. The IC50 (PIK3C2A (human)) was over 10 µM, the IC50 (PI4KA (human)) was over 10 µM and the IC50 (PI4KB (human)) was over 10 µM. For the same compound, the IC50 (PIK3C2B (human)) was over 10 µM and the IC50 (PIK3C3 (human)) was over 10 µM.
